Assay results reported in patent publication US7438931B2, “Methods and compositions for the treatment of angiogenic diseases” (The Regents of The University of Michigan, priority 1998, dated 2008).
Several values for one entry are separate records, joined by “and”; a condition that tells them apart may be missing. Identical values can stand only once.

Key:
[1] = approximately 6 mg of TM per kilogram of diet; cited from earlier work
metastatic solid tumors = assay: Phase I trial: clinical and radiologic response of metastatic cancer; assay type: in vivo, human
Description: Patients with effusions or bone marrow involvement as the only manifestations of disease, and those who had severe intercurrent illness requiring intensive management or were transfusion dependent, were excluded. […] Other requirements were demonstrable progression of disease in the previous 3 months, after standard treatments such as surgery, chemotherapy, radiotherapy, and/or immunotherapy, or progressive disease after declining conventional treatment modalities.
Six patients were to be enrolled at each dose level. After 4 patients were enrolled at level I, if one patient experienced dose-limiting toxicity (DLT) (defined as Hct<80% of baseline), 2 more patients were enrolled at level I. If no DLT was observed, patients were enrolled at the next dose level. Treatment was allowed to continue beyond induction of target copper deficiency, if the patients experienced a partial or complete clinical response or achieved clinical stable disease by the following definitions. Complete response is defined as the disappearance of all clinical and laboratory signs and symptoms of active disease. Partial response is defined as a 50% or greater reduction in the size of measurable lesions defined by the sum of the products of the longest perpendicular diameters of the lesions, with no new lesions or lesions increasing in size. Minor response is defined as a 25-49% reduction in the sum of the products of the longest perpendicular diameters of one or more measurable lesions, no increase in size of any lesions and no new lesions; stable disease is any change in tumor measurements not represented by the criteria for response or progressive disease, which is defined as an increase of 25% or more in the sum of the products of the longest perpendicular diameters of any measurable indicator lesions, compared to the smallest previous measurement or appearance of a new lesion. Because copper deficiency is not a cytotoxic treatment modality, the patients who provide information about the efficacy of TM for long-term therapy, in this population of patients with advanced cancer, are primarily those who remained within the target Cp window of (20±10)% of baseline for over 90 days, without disease progression
Extent of disease was evaluated at entry, at the point of achievement of copper deficiency, defined as Cp at or below 20% of baseline, and every 10-12 weeks thereafter. Computer-assisted tomography or magnetic resonance imaging were used as appropriate for conventional measurement of disease at all known sites and for evaluation of any potential new sites of disease. Angiogenesis-sensitive ultrasound with 3-dimensional Doppler analyses was employed in select cases, as adjunct to conventional imaging, to evaluate the blood flow to the tumors at different time points.
Blood flow was measured by ultrasound in select patients with accessible lesions, at the time they became copper deficient, and at variable intervals of 8-16 weeks thereafter. 3D scanning was performed on a GE Logiq 700 ultrasound system, with the 739L, 7.5 MHz linear array scanhead. The scanning and vascularity quantification techniques were as previously described (Carson et al., 1998; LeCarpentier et al., 1999).

[2] = Target Cp >90 days, + = on therapy

## tetrathiomolybdate [TM]
[1]
  effects on copper: reduction of plasma ceruloplasmin and a reduction in liver and kidney copper
Metastatic solid tumors; TM alone
  duration of stable disease, patient with previously untreated metastatic breast cancer: over 6 months
Metastatic solid tumors; Target Cp <90 days
  No. of Patients: Disease progression: 7
  No. of Patients: Stable disease with partial regression of lung lesions: 1
Metastatic solid tumors; Target Cp <90 days, + = on therapy
  Duration of Cu Deficiency: Stable disease with partial regression of lung lesions: 49+ days
Metastatic solid tumors; Target Cp >90 days
  No. of Patients: Disease progression at one site, stable elsewhere: 1/6
  No. of Patients: Stable disease: 4/6
  No. of Patients: Stable disease with partial regression of lung lesions: 1/6
Metastatic solid tumors; Target Cp >90 days, * = patient discontinued therapy, + = on therapy
  Duration of Cu Deficiency: Stable disease, individual patients: 159 days and 329 days and 351 days and 413 days
Metastatic solid tumors; [2]
  Duration of Cu Deficiency (Average): Stable disease: 313 days
  Duration of Cu Deficiency: Disease progression at one site, stable elsewhere: 120+ days
  Duration of Cu Deficiency: Stable disease with partial regression of lung lesions: 120+ days
Metastatic solid tumors; long-term therapy
  disease status, patient with metastatic chondrosarcoma: stable disease after 12 months of copper deficiency
Metastatic solid tumors; observation periods at target Cp of 120 and 49 days
  lung lesions in two patients with stable disease: complete disappearance of some lung lesions and decrease in size of other lung lesions
Metastatic solid tumors; patients copper deficient at the target range for at least 90 days
  patients with stable disease: 5 out of 6 and 5/6
Metastatic solid tumors; patients removed from protocol
  disease progression after discontinuation of TM therapy: much more rapid rates of progression of disease
Metastatic solid tumors; rib metastasis from renal cell carcinoma, approximately 8 weeks after reaching target copper deficiency
  decrease in blood flow to tumor mass by 3D-ultrasound: 4.4 fold
